Test: Simulated gastrointestinal dissolution testing (FloVitro apparatus, USP simulated gastric and intestinal fluids)
Type: physicochemical
Conditions: 100 mg dose
Procedure: The dissolution test used procedures devised by DOW Chemical using their proprietary FloVitro™ dissolution apparatus described in U.S. Pat. No. 6,799,123B2 and in the publication titled “FloVitro™ Technology” published online at:
The system used two different media that were combined during the process. The fluid flow rates were:
Simulated gastric fluid=7.7 ml/min
Simulated intestinal fluid=13.1 ml/mi
Total flow through analyzer=20.8 ml/min
To Cell 1: USP simulated gastric fluid (no pepsin)
To Cell 2: USP simulated intestinal fluid (pH 6.8) (SIF)
The samples tested were: • a) 100 mg dose neat benzonatate • b) 220.48 mg of IRP69H resinate: 87.97 mg benzonatate dose • c) 225.15 mg of IRP64H resinate: 102.21 mg benzonatate dose a) 100 mg Neat Benzonatate

CCCCNc1ccc(C(=O)OCCOCCOCCOCCOCCOCCOCCOCCOCCOC)cc1 [BENZ, benzonatate]
Concentration of Homolog in Effluent Total (0 min): 0.00 mg/L | Concentration of Homolog in Effluent n = 3 (0 min): 0.00 mg/L | Concentration of Homolog in Effluent n = 4 (0 min): 0.00 mg/L | Concentration of Homolog in Effluent n = 5 (0 min): 0.00 mg/L | Concentration of Homolog in Effluent n = 6 (0 min): 0.00 mg/L | Concentration of Homolog in Effluent n = 7 (0 min): 0.00 mg/L | Concentration of Homolog in Effluent n = 8 (0 min): 0.00 mg/L | Concentration of Homolog in Effluent n = 9 (0 min): 0.00 mg/L | Concentration of Homolog in Effluent n = 10 (0 min): 0.00 mg/L | Concentration of Homolog in Effluent n = 11 (0 min): 0.00 mg/L | Concentration of Homolog in Effluent n = 12 (0 min): 0.00 mg/L | Concentration of Homolog in Effluent n = 13 (0 min): 0.00 mg/L | Concentration of Homolog in Effluent n = 14 (0 min): 0.00 mg/L | Concentration of Homolog in Effluent n = 15 (0 min): 0.00 mg/L | Concentration of Homolog in Effluent n = 16 (0 min): 0.00 mg/L | Concentration of Homolog in Effluent n = 17 (0 min): 0.00 mg/L | Concentration of Homolog in Effluent Total (10 min): 13.84 mg/L | Concentration of Homolog in Effluent n = 3 (10 min): 0.04 mg/L | Concentration of Homolog in Effluent n = 4 (10 min): 0.14 mg/L | Concentration of Homolog in Effluent n = 5 (10 min): 0.41 mg/L | Concentration of Homolog in Effluent n = 6 (10 min): 0.85 mg/L | Concentration of Homolog in Effluent n = 7 (10 min): 1.42 mg/L | Concentration of Homolog in Effluent n = 8 (10 min): 1.92 mg/L | Concentration of Homolog in Effluent n = 9 (10 min): 2.14 mg/L | Concentration of Homolog in Effluent n = 10 (10 min): 2.06 mg/L | Concentration of Homolog in Effluent n = 11 (10 min): 1.80 mg/L | Concentration of Homolog in Effluent n = 12 (10 min): 1.26 mg/L | Concentration of Homolog in Effluent n = 13 (10 min): 0.84 mg/L | Concentration of Homolog in Effluent n = 14 (10 min): 0.49 mg/L | Concentration of Homolog in Effluent n = 15 (10 min): 0.27 mg/L | Concentration of Homolog in Effluent n = 16 (10 min): 0.12 mg/L | Concentration of Homolog in Effluent n = 17 (10 min): 0.08 mg/L | Cumul. (cumulative release in effluent) (10 min): 1.44 mg | Concentration of Homolog in Effluent Total (20 min): 28.13 mg/L | Concentration of Homolog in Effluent n = 3 (20 min): 0.07 mg/L | Concentration of Homolog in Effluent n = 4 (20 min): 0.28 mg/L | Concentration of Homolog in Effluent n = 5 (20 min): 0.78 mg/L | Concentration of Homolog in Effluent n = 6 (20 min): 1.73 mg/L | Concentration of Homolog in Effluent n = 7 (20 min): 2.91 mg/L | Concentration of Homolog in Effluent n = 8 (20 min): 3.90 mg/L | Concentration of Homolog in Effluent n = 9 (20 min): 4.38 mg/L | Concentration of Homolog in Effluent n = 10 (20 min): 4.18 mg/L | Concentration of Homolog in Effluent n = 11 (20 min): 3.58 mg/L | Concentration of Homolog in Effluent n = 12 (20 min): 2.65 mg/L | Concentration of Homolog in Effluent n = 13 (20 min): 1.73 mg/L | Concentration of Homolog in Effluent n = 14 (20 min): 1.03 mg/L | Concentration of Homolog in Effluent n = 15 (20 min): 0.55 mg/L | Concentration of Homolog in Effluent n = 16 (20 min): 0.25 mg/L | Concentration of Homolog in Effluent n = 17 (20 min): 0.08 mg/L | Cumul. (cumulative release in effluent) (20 min): 8.00 mg | Concentration of Homolog in Effluent Total (30 min): 34.97 mg/L | Concentration of Homolog in Effluent n = 3 (30 min): 0.08 mg/L | Concentration of Homolog in Effluent n = 4 (30 min): 0.35 mg/L | Concentration of Homolog in Effluent n = 5 (30 min): 0.98 mg/L | Concentration of Homolog in Effluent n = 6 (30 min): 2.10 mg/L | Concentration of Homolog in Effluent n = 7 (30 min): 3.61 mg/L | Concentration of Homolog in Effluent n = 8 (30 min): 4.89 mg/L | Concentration of Homolog in Effluent n = 9 (30 min): 5.47 mg/L | Concentration of Homolog in Effluent n = 10 (30 min): 5.28 mg/L | Concentration of Homolog in Effluent n = 11 (30 min): 4.52 mg/L | Concentration of Homolog in Effluent n = 12 (30 min): 3.29 mg/L | Concentration of Homolog in Effluent n = 13 (30 min): 2.13 mg/L | Concentration of Homolog in Effluent n = 14 (30 min): 1.27 mg/L | Concentration of Homolog in Effluent n = 15 (30 min): 0.63 mg/L | Concentration of Homolog in Effluent n = 16 (30 min): 0.28 mg/L | Concentration of Homolog in Effluent n = 17 (30 min): 0.09 mg/L | Cumul. (cumulative release in effluent) (30 min): 15.52 mg | Concentration of Homolog in Effluent Total (40 min): 37.37 mg/L | Concentration of Homolog in Effluent n = 3 (40 min): 0.09 mg/L | Concentration of Homolog in Effluent n = 4 (40 min): 0.40 mg/L | Concentration of Homolog in Effluent n = 5 (40 min): 1.10 mg/L | Concentration of Homolog in Effluent n = 6 (40 min): 2.27 mg/L | Concentration of Homolog in Effluent n = 7 (40 min): 3.86 mg/L | Concentration of Homolog in Effluent n = 8 (40 min): 5.23 mg/L | Concentration of Homolog in Effluent n = 9 (40 min): 5.81 mg/L | Concentration of Homolog in Effluent n = 10 (40 min): 5.66 mg/L | Concentration of Homolog in Effluent n = 11 (40 min): 4.80 mg/L | Concentration of Homolog in Effluent n = 12 (40 min): 3.47 mg/L | Concentration of Homolog in Effluent n = 13 (40 min): 2.31 mg/L | Concentration of Homolog in Effluent n = 14 (40 min): 1.35 mg/L | Concentration of Homolog in Effluent n = 15 (40 min): 0.67 mg/L | Concentration of Homolog in Effluent n = 16 (40 min): 0.25 mg/L | Concentration of Homolog in Effluent n = 17 (40 min): 0.10 mg/L | Cumul. (cumulative release in effluent) (40 min): 23.20 mg | Concentration of Homolog in Effluent Total (50 min): 36.42 mg/L | Concentration of Homolog in Effluent n = 3 (50 min): 0.11 mg/L | Concentration of Homolog in Effluent n = 4 (50 min): 0.40 mg/L | Concentration of Homolog in Effluent n = 5 (50 min): 1.05 mg/L | Concentration of Homolog in Effluent n = 6 (50 min): 2.18 mg/L | Concentration of Homolog in Effluent n = 7 (50 min): 3.76 mg/L | Concentration of Homolog in Effluent n = 8 (50 min): 5.07 mg/L | Concentration of Homolog in Effluent n = 9 (50 min): 5.67 mg/L | Concentration of Homolog in Effluent n = 10 (50 min): 5.51 mg/L | Concentration of Homolog in Effluent n = 11 (50 min): 4.71 mg/L | Concentration of Homolog in Effluent n = 12 (50 min): 3.42 mg/L | Concentration of Homolog in Effluent n = 13 (50 min): 2.23 mg/L | Concentration of Homolog in Effluent n = 14 (50 min): 1.28 mg/L | Concentration of Homolog in Effluent n = 15 (50 min): 0.67 mg/L | Concentration of Homolog in Effluent n = 16 (50 min): 0.27 mg/L | Concentration of Homolog in Effluent n = 17 (50 min): 0.09 mg/L | Cumul. (cumulative release in effluent) (50 min): 30.53 mg | Concentration of Homolog in Effluent Total (60 min): 34.04 mg/L | Concentration of Homolog in Effluent n = 3 (60 min): 0.07 mg/L | Concentration of Homolog in Effluent n = 4 (60 min): 0.37 mg/L | Concentration of Homolog in Effluent n = 5 (60 min): 0.99 mg/L | Concentration of Homolog in Effluent n = 6 (60 min): 2.07 mg/L | Concentration of Homolog in Effluent n = 7 (60 min): 3.55 mg/L | Concentration of Homolog in Effluent n = 8 (60 min): 4.76 mg/L | Concentration of Homolog in Effluent n = 9 (60 min): 5.36 mg/L | Concentration of Homolog in Effluent n = 10 (60 min): 5.13 mg/L | Concentration of Homolog in Effluent n = 11 (60 min): 4.41 mg/L | Concentration of Homolog in Effluent n = 12 (60 min): 3.17 mg/L | Concentration of Homolog in Effluent n = 13 (60 min): 2.09 mg/L | Concentration of Homolog in Effluent n = 14 (60 min): 1.25 mg/L | Concentration of Homolog in Effluent n = 15 (60 min): 0.56 mg/L | Concentration of Homolog in Effluent n = 16 (60 min): 0.26 mg/L | Concentration of Homolog in Effluent n = 17 (60 min): 0.00 mg/L | Cumul. (cumulative release in effluent) (60 min): 63.41 mg
